Our source for the IC50 values is patent US20220009914A1, “Analogs of Nitrofuran Antibiotics to Combat Resistance” (The Trustees of Indiana University, priority 2020, published 2022).

Experiment [1] concerns the target T1, native rhodanese (Bos taurus, UniProt P00586).
T1 sequence (P00586 1-297): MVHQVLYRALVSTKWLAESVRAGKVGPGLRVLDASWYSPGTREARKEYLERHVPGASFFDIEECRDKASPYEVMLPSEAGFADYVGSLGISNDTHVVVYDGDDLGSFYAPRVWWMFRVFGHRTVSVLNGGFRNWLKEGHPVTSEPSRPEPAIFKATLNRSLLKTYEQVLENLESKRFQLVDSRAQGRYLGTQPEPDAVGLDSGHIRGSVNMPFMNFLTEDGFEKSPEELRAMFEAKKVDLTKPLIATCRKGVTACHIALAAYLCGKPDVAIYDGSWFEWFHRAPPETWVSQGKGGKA
Kind of experiment: native rhodanese enzymatic activity counter-screen. The experiment is classed as biochemical. As to the method:
Counter-screening compounds for inhibition of native rhodanese enzymatic activity. Reagent Preparations & Assay Protocol: Reagents were identical to those used in the GroEL/ES-dRho refolding assay described above; however, the assay protocol differed in the sequence of compound addition to the wells. Compounds were pin-transferred after 50 minute incubation for the refolding cycle, but prior to the addition of the thiocyanate enzymatic assay stock. Thus, the refolding reactions were allowed to proceed for 50 min at 37° C. in the absence of test compounds, but the enzymatic activity of the refolded rhodanese reporter enzyme was monitored in the presence of test compounds (inhibitor concentration range during the enzymatic reporter reaction is 100 μM to 46 nM—3-fold dilutions). IC50 values for the rhodanese reporter enzyme were determined as described above. Results presented represent the averages of IC50 values obtained from at least four replicates.
All compounds were counter-screened for inhibiting the enzymatic activity of the native Rho reporter enzyme as per our previously reported procedure. Results presented represent the averages of IC50 values obtained from at least four replicates.

Experiment [2] addresses T2, native MDH (Sus scrofa, UniProt P00346).
T2 sequence (P00346 25-338): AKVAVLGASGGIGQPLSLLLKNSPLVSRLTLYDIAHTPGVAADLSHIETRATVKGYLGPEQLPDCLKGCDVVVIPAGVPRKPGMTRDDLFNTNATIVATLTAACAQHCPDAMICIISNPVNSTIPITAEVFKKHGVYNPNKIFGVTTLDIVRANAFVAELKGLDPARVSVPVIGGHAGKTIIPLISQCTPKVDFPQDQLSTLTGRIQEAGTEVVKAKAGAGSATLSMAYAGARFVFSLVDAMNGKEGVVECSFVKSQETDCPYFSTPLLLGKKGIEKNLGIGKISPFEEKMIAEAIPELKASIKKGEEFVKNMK
Kind of experiment: native MDH enzymatic activity counter-screen. Format: biochemical, pig. As to the method: Reagent Preparations & Assay Protocol: This assay was performed as described above for the GroEL/ES-dMDH refolding assay; however, the assay protocol differed in the sequence of compound addition to the assay plates. The refolding reactions were allowed to proceed for 45 min at 37° C. in the absence of test compounds (complete refolding of MDH occurs), then quenched with the EDTA stock. Compounds were then pin-transferred into the plates after the EDTA quenching step; thus, compound effects are only possible by inhibiting the fully-refolded MDH reporter substrate. […] A340 nm measurements were recorded at 0.5 minutes (start point) and at successive time points until the amount of NADH consumed reached ˜90% (end point, generally between 20-35 minutes). Compounds were tested in 8-point, 3-fold dilution series (62.5 μM to 29 nM during the reporter reaction) in clear, flat-bottom 384-well microtiter plates. IC50 values for the MDH reporter enzyme were determined as described above. Results presented represent the averages of IC50 values obtained from at least five replicates.
Evaluating analogs for inhibiting GroEL/ES-mediated substrate refolding functions. […] We first evaluated all test compounds in our standard GroEL/ES-mediated refolding assays that employ either malate dehydrogenase (MDH) or rhodanese (Rho) as the denatured substrate reporter enzymes. When denatured, these enzymes are efficiently folded by GroEL/ES in the absence of inhibitors, and thus act as reporters to determine the degree of inhibition against the bacterial chaperonin system. Inhibition was examined in the presence of these two orthogonal substrates in order to support that GroEL/ES inhibitors were on-target. To further support on-target effects against GroEL/ES, we counter-screened for inhibition of the native MDH and Rho enzymatic reporter reactions, where test compounds were added after the denatured MDH and Rho substrate enzymes were completely refolded by GroEL/ES.

The mark [3] stands for this setting: compounds added after refolding, read-out: Native Rho Activity IC50.
Where [4] appears, read: without NfsB nitroreductase, compounds added after refolding, read-out: Native MDH Activity IC50.

Broadly, the IC50 is the concentration that inhibits the measured activity by half.

Where two headings read alike, the source gives them in different places. A value given as a limit tells only on which side of the number the result lay.

For `O=C(N/N=C/c1ccc(O)c2ncccc12)c1ccccc1` [Compound 5, N′-((8-hydroxyquinolin-5-yl)methylene)benzohydrazide], the values for the IC50 in experiment [1] (setting [3]) and in experiment [2] (setting [4]) were 95 µM and greater than 63 µM, respectively. Consider `COc1ccc(C(=O)N/N=C/c2ccccc2)cc1` [Compound 37, N′-benzylidene-4-methoxybenzohydrazide], for which the IC50 in experiment [1] (setting [3]) was greater than 100 µM; in experiment [2] (setting [4]), greater than 63 µM. On the same counts, the results for `O=C(N/N=C/c1ccc([N+](=O)[O-])o1)c1cccc(Oc2ccccc2)c1` [Compound 24, N′-((5-nitrofuran-2-yl)methylene)-3-phenoxybenzohydrazide] are 65 µM and greater than 63 µM.

With `CN(C)c1ccc(C(=O)N/N=C/c2ccc([N+](=O)[O-])o2)cc1` [Compound 21, 4-(dimethylamino)-N′-((5-nitrofuran-2-yl)methylene)benzohydrazide], the IC50 in experiment [1] (setting [3]) is greater than 100 µM.

Turning to `O=C(N/N=C/c1ccc([N+](=O)[O-])o1)c1ccncc1` [Compound 19, N′-((5-nitrofuran-2-yl)methylene)isonicotinohydrazide], in experiment [1] (setting [3]), the IC50 was determined as 38 µM. Regarding `O=C1CN(/N=C/c2ccc([N+](=O)[O-])o2)C(=O)N1` [Nitrofurantoin, reference compound], the concentration for half-maximal inhibition (IC50) in experiment [1] was greater than 100 µM. As for `COc1ccc(C(=O)N/N=C/c2cccc3ccccc23)cc1` [Compound 33, 4-methoxy-N′-(naphthalen-1-ylmethylene)benzohydrazide], the IC50 was greater than 100 µM in experiment [1] (setting [3]) and greater than 63 µM in experiment [2] (setting [4]). On to `O=C(N/N=C/c1ccc(O)c2ncccc12)c1cccc2ccccc12` [Compound 9, N′-((8-hydroxyquinolin-5-yl)methylene)-1-naphthohydrazide], for which the IC50 is 97 µM in experiment [1] (setting [3]) and greater than 63 µM in experiment [2] (setting [4]). For `O=[N+]([O-])c1ccc(O)c2ncccc12` [Nitroxoline, reference compound], the IC50 in experiment [1] (setting [3]) was 2 µM; in experiment [2] (setting [4]), greater than 63 µM. For the compound `COc1ccc(C(=O)N/N=C/c2ccc(O)c3ncccc23)cc1` [Compound 1, N′-((8-hydroxyquinolin-5-yl)methylene)-4-methoxybenzohydrazide], the IC50 was 98 µM in experiment [1] (setting [3]) and greater than 63 µM in experiment [2] (setting [4]).

As for `COc1ccc(C(=O)N/N=C/c2ccc([N+](=O)[O-])o2)cc1` [Compound 20, 4-methoxy-N′-((5-nitrofuran-2-yl)methylene)benzohydrazide], the IC50 in experiment [1] (setting [3]) was greater than 100 µM. Take `O=C(N/N=C/c1ccc([N+](=O)[O-])o1)c1ccc(NS(=O)(=O)c2ccc(Br)cc2)cc1` [Compound 27, 4-bromo-N-(4-(2-((5-nitrofuran-2-yl)methylene)hydrazine-1-carbonyl)phenyl)benzenesulfonamide]: the results for the IC50 in experiment [1] and in experiment [2] were 44 µM and greater than 63 µM, respectively. Consider `COc1ccc(C(=O)N/N=C/c2cccc3ncccc23)cc1` [Compound 31, 4-methoxy-N′-(quinolin-5-ylmethylene)benzohydrazide], for which the IC50 is greater than 100 µM in experiment [1] (setting [3]) and greater than 63 µM in experiment [2] (setting [4]). On the same counts, the results for `O=C(N/N=C/c1ccc(O)c2ncccc12)c1ccc(O)cc1` [Compound 7, 4-hydroxy-N′-((8-hydroxyquinolin-5-yl)methylene)benzohydrazide] are 72 µM and greater than 63 µM. `O=C(N/N=C/c1ccc([N+](=O)[O-])o1)c1ccccc1` [Compound 18, N′-((5-nitrofuran-2-yl)methylene)benzohydrazide]: the IC50 in experiment [1] (setting [3]) was 84 µM.

`O=Cc1ccc([N+](=O)[O-])o1` [Compound 41, reference compound]: the IC50 is 32 µM in experiment [1] (setting [3]) and greater than 63 µM in experiment [2] (setting [4]). On to `O=C(N/N=C/c1ccc([N+](=O)[O-])o1)c1ccc(O)cc1` [Nifuroxazide, reference compound], for which the figures for the IC50 in experiment [1] and in experiment [2] were 69 µM and greater than 63 µM, respectively.

On to `CN(C)c1ccc(C(=O)N/N=C/c2ccc(O)c3ncccc23)cc1` [Compound 8, 4-(dimethylamino)-N′-((8-hydroxyquinolin-5-yl)methylene)benzohydrazide], for which the results for the IC50 in experiment [1] (setting [3]) and in experiment [2] (setting [4]) were 67 µM and greater than 63 µM, respectively. On to `O=C(N/N=C/c1ccc(O)c2ncccc12)c1cccc(Oc2ccccc2)c1` [Compound 11, N′-((8-hydroxyquinolin-5-yl)methylene)-3-phenoxybenzohydrazide], for which the IC50 in experiment [1] (setting [3]) is 85 µM; in experiment [2] (setting [4]), greater than 63 µM.

With `CCN(CC)S(=O)(=O)c1cccc(C(=O)N/N=C/c2ccc(O)c3ncccc23)c1` [Compound 12, N,N-diethyl-3-(2-((8-hydroxyquinolin-5-yl)methylene)hydrazine-1-carbonyl)benzenesulfonamide], the IC50 in experiment [1] (setting [3]) was 81 µM; in experiment [2] (setting [4]) it was greater than 63 µM. On the same counts, the results for `CCN(CC)S(=O)(=O)c1cccc(C(=O)N/N=C/c2ccc([N+](=O)[O-])o2)c1` [Compound 25, N,N-diethyl-3-(2-((5-nitrofuran-2-yl)methylene)hydrazine-1-carbonyl)benzenesulfonamide] are greater than 100 µM and greater than 63 µM. For `COc1ccc(C(=O)N/N=C/c2ccc(O)c3ccccc23)cc1` [Compound 29, N′-((4-hydroxynaphthalen-1-yl)methylene)-4-methoxybenzohydrazide], the IC50 in experiment [1] (setting [3]) was 66 µM; in experiment [2] (setting [4]) it was greater than 63 µM.

`O=C(N/N=C/c1ccc(O)c2ncccc12)c1ccc(Cl)s1` [Compound 4, 5-chloro-N′-((8-hydroxyquinolin-5-yl)methylene)thiophene-2-carbohydrazide]: the IC50 is 14 µM in experiment [1] (setting [3]) and greater than 63 µM in experiment [2] (setting [4]). `O=C(N/N=C/c1ccc([N+](=O)[O-])o1)c1ccccc1Oc1ccccc1` [Compound 23, N′-((5-nitrofuran-2-yl)methylene)-2-phenoxybenzohydrazide]: the results for the IC50 in experiment [1] (setting [3]) and in experiment [2] (setting [4]) were 43 µM and greater than 63 µM, respectively. Consider `O=C(N/N=C/c1cccc2ncccc12)c1ccccc1` [Compound 32, N′-(quinolin-5-ylmethylene)benzohydrazide], for which the IC50 was greater than 100 µM in experiment [1] (setting [3]) and greater than 63 µM in experiment [2] (setting [4]). On to `O=C(N/N=C/c1ccc([N+](=O)[O-])o1)c1ccc(NS(=O)(=O)c2cccs2)cc1` [Compound 26, N-(4-(2-((5-nitrofuran-2-yl)methylene)hydrazine-1-carbonyl)phenyl)thiophene-2-sulfonamide], for which the IC50 was 44 µM in experiment [1] (setting [3]) and greater than 63 µM in experiment [2] (setting [4]). For `O=C(N/N=C/c1ccc(O)c2ccccc12)c1ccccc1` [Compound 30, N′-((4-hydroxynaphthalen-1-yl)methylene)benzohydrazide], the results for the IC50 in experiment [1] (setting [3]) and in experiment [2] (setting [4]) were 97 µM and greater than 63 µM, respectively.

Turning to `O=C(N/N=C/c1ccc(O)c2ncccc12)c1ccc(NS(=O)(=O)c2cccs2)cc1` [Compound 13, N-(4-(2-((8-hydroxyquinolin-5-yl)methylene)hydrazine-1-carbonyl)phenyl)thiophene-2-sulfonamide], the results for the IC50 in experiment [1] (setting [3]) and in experiment [2] (setting [4]) were greater than 100 µM and greater than 63 µM, respectively. Regarding `O=C(N/N=C/c1ccc([N+](=O)[O-])o1)c1ccc(Cl)s1` [Compound 17, 5-chloro-N′-((5-nitrofuran-2-yl)methylene)thiophene-2-carbohydrazide], the IC50 in experiment [1] (setting [3]) stood at 56 µM. The same measure, in the same setting: as for `O=C(N/N=C/c1ccc([N+](=O)[O-])o1)c1cccs1` [Compound 16, N′-((5-nitrofuran-2-yl)methylene)thiophene-2-carbohydrazide], the figure is greater than 100 µM.
